Source: article PMC8097418, “In Vitro and In Vivo Antibacterial Activities of a Novel Quinolone Compound, OPS-2071, against Clostridioides difficile” (Antimicrobial Agents and Chemotherapy, 2021)
In brackets after ≈: the same amount, converted by molar mass. Read-outs that look alike come from different tables or passages of the source.

Tests used:
[1] = tested on: C. difficile ATCC 700057; experiment: Killing kinetics (time-kill curves); type: cell-based, Clostridioides difficile
Method: The test tubes were incubated for 48 h. The CFU/ml values of the bacterial suspensions were calculated at 0, 2, 4, 6, 24, and 48 h by culturing 0.1-ml samples of serial 10-fold dilutions on GAM agar plates at 37°C under anaerobic conditions and then counting the number of growing colonies. The CFU/ml value at each time point is from one sample of datum.

[2] = tested on: C. difficile ATCC 700057; experiment: MIC by broth dilution (GAM broth); type: cell-based, Clostridioides difficile; details: Clostridioides difficile, read-out: MIC
Method: (§1) MICs obtained using the agar dilution method were determined visually as described for the CLSI method ([41], [42]). MICs obtained using the broth dilution method were determined visually based on the CLSI method except for using Gifu anaerobic medium (GAM) broth instead of supplemented Brucella broth ([41], [42]).

[3] = tested on: C. difficile ATCC 700057; experiment: MIC by agar dilution (CLSI) against quality control strain; type: cell-based, Clostridioides difficile; details: Clostridioides difficile, read-out: MIC
Method: as §1

[4] = tested on: 10 clinical isolates of C. difficile; experiment: MIC (broth dilution) and MBC testing, 10 clinical isolates; type: cell-based, Clostridioides difficile; details: 10 clinical isolates
Method: In this test, MIC testing was performed using the broth dilution method as recommended in the CLSI ([41]). After the MICs were determined, 10 μl of the bacterial suspension from the MIC test tube was inoculated onto agar plates and incubated at 37°C. The bacterial colonies were then counted and bacterial numbers were calculated. The MBC was considered to be the lowest concentration of the antibiotics that prevented growth and reduced the inoculum by >99.9% within 48 h, irrespective of counts of survivors at higher antibiotic concentrations.

[5] = tested on: C. difficile ATCC 700057; experiment: Effect of pH on MIC (agar dilution); type: cell-based, Clostridioides difficile; details: for MIC: Clostridioides difficile
[6] = tested on: C. difficile ATCC 700057; experiment: Mutant prevention concentration; type: cell-based, Clostridioides difficile
Method: The mutant prevention concentration was measured by plating approximately 10^10 CFU of C. difficile ATCC 700057 onto a GAM agar plate containing the test agent. Inoculated plates were incubated for 3 days, and the MIC for each antibiotic that prevented the growth of colonies was determined using the agar dilution method as described by the CLSI ([41]). The MIC values of grown colonies were compared to determine which bacteria were resistant. The MPC was defined as the lowest concentration that prevented the growth of resistant bacteria.

[7] = Pharmacokinetics in the rat (plasma, oral and intravenous); type: in vivo, male SD rats
Method: OPS-2071 was orally or intravenously administered at 1 mg/kg to male SD rats, and plasma was collected 0.5, 1, 2, 4, 6, 8, 12, 24, 48, and 72 h postdose (oral, n = 3 for each time point) or 0.083, 0.25, 0.5, 1, 2, 4, 6, 8, 12, 24, 48, and 72 h postdose (intravenous, n = 3 for each time point). After solid-phase extraction, the OPS-2071 concentration in plasma was determined by a validated LC-ESI-MS/MS method, and bioavailability was calculated. The mass spectrometer QTRAP 5500 (AB Sciex Pte. Ltd.) and high-performance liquid chromatography Prominence UFLCXR system (Shimadzu Corp.) were used. The PK parameters (AUCt) were determined with the same WinNonlin professional software, and the bioavailability was calculated from AUCt,oral and AUCt,intravenous.

[8] = tested on: C. difficile ATCC 700057; type: cell-based, Clostridioides difficile
[9] = tested on: C. difficile ATCC 700057; experiment: Postantibiotic effect (PAE); type: cell-based, Clostridioides difficile; details: for Postantibiotic effect: 1 h exposure
Method: C. difficile ATCC 700057 was cultured in GAM agar and adjusted in GAM broth to approximately 10^6 CFU/ml. The bacterial suspensions were preincubated at 37°C for 1 h. […] After preincubation, test and reference solutions were added to each bacterial suspension in a test tube, and the suspensions were cultured for 1 h. After exposure to the test compounds, bacterial suspensions were washed with GAM broth and cultured for 6 h. […] The PAE was defined according to Craig and Gudmundsson as PAE = T − C, where T is the time required for the viable counts of the exposed bacteria to increase by 1 log10 above the counts observed immediately after washing, and C is the corresponding time for the antibiotic unexposed controls ([44]).

[10] = biological target: DNA gyrase of C. difficile (Clostridioides difficile, UniProt Q18C89+Q18C90); experiment: biochemical
DNA gyrase of C. difficile, sequence (Q18C90 entry or part of it): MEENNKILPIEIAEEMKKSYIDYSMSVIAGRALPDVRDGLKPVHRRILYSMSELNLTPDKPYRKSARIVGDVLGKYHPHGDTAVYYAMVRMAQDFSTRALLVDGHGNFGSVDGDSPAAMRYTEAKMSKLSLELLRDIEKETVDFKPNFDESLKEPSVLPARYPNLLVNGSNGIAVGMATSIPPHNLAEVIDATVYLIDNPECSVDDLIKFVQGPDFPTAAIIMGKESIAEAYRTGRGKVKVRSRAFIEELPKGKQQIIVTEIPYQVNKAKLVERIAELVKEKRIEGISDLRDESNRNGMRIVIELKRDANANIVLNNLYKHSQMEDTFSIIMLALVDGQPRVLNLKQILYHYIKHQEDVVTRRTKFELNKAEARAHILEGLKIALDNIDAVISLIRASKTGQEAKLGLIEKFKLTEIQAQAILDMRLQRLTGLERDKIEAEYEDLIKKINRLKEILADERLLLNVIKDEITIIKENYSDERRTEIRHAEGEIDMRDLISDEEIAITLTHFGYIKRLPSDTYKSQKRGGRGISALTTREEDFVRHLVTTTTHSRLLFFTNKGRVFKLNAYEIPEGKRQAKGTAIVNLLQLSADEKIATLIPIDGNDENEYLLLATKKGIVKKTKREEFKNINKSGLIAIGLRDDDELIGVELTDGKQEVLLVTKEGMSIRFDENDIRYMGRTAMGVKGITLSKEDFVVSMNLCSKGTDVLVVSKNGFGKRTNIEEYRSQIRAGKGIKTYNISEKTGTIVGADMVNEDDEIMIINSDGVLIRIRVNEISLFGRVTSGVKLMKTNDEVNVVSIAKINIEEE
DNA gyrase of C. difficile, sequence (Q18C89 entry or part of it): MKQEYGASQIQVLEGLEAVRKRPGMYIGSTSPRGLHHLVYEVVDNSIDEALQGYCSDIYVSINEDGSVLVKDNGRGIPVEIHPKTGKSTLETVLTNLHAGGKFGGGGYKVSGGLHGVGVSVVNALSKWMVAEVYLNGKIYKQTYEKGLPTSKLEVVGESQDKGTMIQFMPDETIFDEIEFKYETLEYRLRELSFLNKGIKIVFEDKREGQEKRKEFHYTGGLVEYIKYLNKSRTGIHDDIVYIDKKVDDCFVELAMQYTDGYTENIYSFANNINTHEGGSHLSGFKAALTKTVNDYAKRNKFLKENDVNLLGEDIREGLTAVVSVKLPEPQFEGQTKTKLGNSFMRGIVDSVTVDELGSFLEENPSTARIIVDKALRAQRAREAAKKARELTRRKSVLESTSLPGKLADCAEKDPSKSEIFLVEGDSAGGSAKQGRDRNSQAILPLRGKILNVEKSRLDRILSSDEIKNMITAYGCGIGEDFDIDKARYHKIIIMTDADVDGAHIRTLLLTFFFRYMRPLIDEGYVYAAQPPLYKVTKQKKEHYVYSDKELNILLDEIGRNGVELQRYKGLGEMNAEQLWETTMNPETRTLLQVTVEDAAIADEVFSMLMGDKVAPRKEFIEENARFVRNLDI

[11] = tested on: C. difficile ATCC 43255; experiment: In vivo hamster model of C. difficile infection; design: species or system golden Syrian hamsters
Method: C. difficile ATCC 43255 was cultured on GAM agar, and a bacterial suspension was prepared in saline ([26]). […] Hamsters were infected using oral gavage with 0.5 ml of suspension containing approximately 10^6 CFU of C. difficile (day −1). The next day, the animals were administered clindamycin phosphate (0.2 mg/ml in water) by oral gavage at a dose of 5 ml/kg of body weight, for a final dose of 1 mg/kg (day 0). The animals were allocated to the test groups using a stratified randomization method based on the body weight of each infected animal. The test compounds were administered by oral gavage once daily for 5 days (OPS-2071, 0.008 to 1 mg/kg; fidaxomicin, 0.04 mg/kg to 5 mg/kg; vancomycin, 0.04 to 5 mg/kg [5-fold dilution]). Infected control animals were administered 5% (wt/vol) gum arabic solution by oral gavage. […] The cecal contents of dead animals were tested for toxin A and toxin B using C.Diff Quik Chek Complete (Abbott Diagnostics Medical Co., Ltd., Tokyo, Japan) to confirm that the death of the animal was due to CDI.
The statistical significance of OPS-2071, fidaxomicin, and vancomycin treatment was analyzed at all doses against vehicle. Survival curves were estimated for each group using the Kaplan-Meier method. Differences in survival homogeneity in each group were evaluated with a log-rank test with Dunnett-type (two-sided) comparison.

With `Cc1c(-c2cnc(N)c(C#N)c2)c(F)cc2c(=O)c(C(=O)O)cn(C3CC3)c12` [OPS-2071, 7-(6-amino-5-cyanopyridin-3-yl)-1-cyclopropyl-6-fluoro-8-methyl-4-oxo-1,4-dihydroquinoline-3-carboxylic acid] the “regrowth of the bacteria” value ([1]; after 48 h of incubation) was “regrowth of the bacteria did not occur”, the “time to undetectable level of viable bacteria” value ([1]; concentrations higher than the MIC) was no more than 24 h and the “reduction of viable bacteria” value ([1]; concentrations higher than the MIC, first 2 h) was 2 log. It also gave an MIC ([2]; ATCC700057, broth dilution, retested for the time-kill assay) of 0.03 µg/mL (≈ 0.0793 µM), an MIC ([2]; ATCC700057, broth method, determined for the PAE assay) of 0.06 µg/mL (≈ 0.159 µM) and an MIC ([3]; ATCC700057, agar dilution, determined for the spontaneous resistance assay) of 0.03 µg/mL (≈ 0.0793 µM). For the same compound, the MIC ([3]; ATCC700057, quality control strain ATCC 700057, CLSI method) was 0.031 µg/mL (≈ 0.0819 µM), the MBC90/MIC90 [4] was 1 and the “MBC Range” value ([4]; >99.9% reduction within 48 h) was 0.03 to 0.5 µg/mL. The “MIC range” value ([4]; broth dilution) was 0.03 to 0.5 µg/mL, the MIC90 ([4]; Clostridioides difficile, broth dilution, read-out: MIC90) was 0.5 µg/mL (≈ 1.32 µM) and the MBC ([4]; Clostridioides difficile, read-out: MBC90) was 0.5 µg/mL (≈ 1.32 µM). For the same compound, the MIC ([5]; ATCC700057, pH 6) was 0.016 µg/mL (≈ 0.0423 µM), the MIC ([5]; ATCC700057, pH 7) was 0.016 µg/mL (≈ 0.0423 µM) and the MIC ([5]; ATCC700057, pH 8) was 0.03 µg/mL (≈ 0.0793 µM). The “influence of pH on MICs” value ([5]; pH 6 to 8) was “not influenced by pH”, the “MPC fold lower than those of fidaxomicin and vancomycin” value [6] was 16 fold and the “mutant prevention concentration (MPC)” value ([6]; approximately 10^10 CFU, 3 days) was 0.5 µg/mL. The “plasma concentrations at 48 and 72 h after administration” value ([7]; 1 mg/kg oral or intravenous) was less than 0.5 ng/mL, the bioavailability ([7]; male, SD, rat, plasma, 1 mg/kg, from AUCt oral and intravenous) was 2.9% and the AUC(0-t) ([7]; male, SD, rat, intravenous, 1 mg/kg, plasma) was 672 ng·h/mL. For the same compound, the AUC(0-t) ([7]; male, SD, rat, oral, 1 mg/kg, plasma) was 19.5 ng·h/mL, the “Frequency of spontaneous resistance” value ([8]; 4× MIC) was <9.17 × 10^–9 and the “Frequency of spontaneous resistance” value ([8]; 16× MIC) was <9.17 × 10^–9. The “Frequency of spontaneous resistance” value ([8]; 64× MIC) was <9.17 × 10^–9, the “PAEs at 4- and 8-fold the MIC” value ([9]; 4- and 8-fold the MIC) was 3.93 to 4.04 h and the Postantibiotic effect ([9]; 4× MIC) was 3.93 h. The Postantibiotic effect ([9]; 8× MIC) was 4.04 h, the IC50 [10] was 608 nM and the “ED50 fold lower than that of fidaxomicin” value ([11]; hamster, in vivo) was 52.1 fold. For the same compound, the “ED50 fold lower than that of vancomycin” value ([11]; hamster, in vivo) was 39.0 fold, the “50% effective dose (ED50)” value ([11]; survival on day 20, oral once daily for 5 days, probit method) was 0.0313 mg/kg/day and the “dosages with significant efficacy compared with vehicle control” value ([11]; survival, log-rank test) was no less than 0.04 mg/kg.
